Experiment: first-in-human single oral dose safety and tolerability (adverse events)
Description: The study consisted of three parts. Part A was a double-blind, placebo-controlled (in a 6:2 SDI-118:placebo ratio), single ascending oral dose study performed in 16 subjects equally divided into two cohorts. […] Dose levels of .3, 1, 3, 10, 30, 60, 90 and 120 mg of SDI-118 were set to be administered in an alternating panel design with a minimum washout period of 7 days between subsequent periods. In each period two different sentinel subjects were dosed (in a 1:1 SDI-118:placebo ratio) and followed-up for safety for at least 48 h before the rest of the cohort received the same dose level of the study drug.
Safety and tolerability were assessed by questioning for adverse events (AEs), vital signs measurements (supine and orthostatic), 12-lead ECGs (always acquired in triplicate except during screening and post-study visit), standard lab safety tests on blood and urine samples, and physical and neurological examinations at regular time-points throughout the study.

Structure (SMILES): O=C1C[C@H](c2cc(F)c(F)c(F)c2)CN1Cn1ncnc1Cl [SDI-118]
- General Disorders, drug related TEAEs: N (%) (number of subjects) (single oral dose 10 mg (N=16)): 1 (16.7) N (%)
- General Disorders, drug related TEAEs: No. (number of observations) (single oral dose 10 mg (N=16)): 1
- Hypersomnia, drug related TEAE: N (%) (number of subjects) (single oral dose 10 mg (N=16)): 2 (33.3) N (%)
- Hypersomnia, drug related TEAE: No. (number of observations) (single oral dose 10 mg (N=16)): 2
- Nervous System Disorders, drug related TEAEs: N (%) (number of subjects) (single oral dose 10 mg (N=16)): 3 (50.0) N (%)
- Nervous System Disorders, drug related TEAEs: No. (number of observations) (single oral dose 10 mg (N=16)): 3
- All drug related TEAEs: N (%) (number of subjects) (single oral dose 20 mg (N=8)): 4 (50.0) N (%)
- All drug related TEAEs: No. (number of observations) (single oral dose 20 mg (N=8)): 4
- Dizziness, drug related TEAE: N (%) (number of subjects) (single oral dose 20 mg (N=8)): 4 (50.0) N (%)
- Dizziness, drug related TEAE: No. (number of observations) (single oral dose 20 mg (N=8)): 4
- Nervous System Disorders, drug related TEAEs: N (%) (number of subjects) (single oral dose 20 mg (N=8)): 4 (50.0) N (%)
- Nervous System Disorders, drug related TEAEs: No. (number of observations) (single oral dose 20 mg (N=8)): 4
- All drug related TEAEs: N (%) (number of subjects) (single oral dose 40 mg (N=6)): 3 (50.0) N (%)
- All drug related TEAEs: No. (number of observations) (single oral dose 40 mg (N=6)): 4
- Dizziness, drug related TEAE: N (%) (number of subjects) (single oral dose 40 mg (N=6)): 3 (50.0) N (%)
- Dizziness, drug related TEAE: No. (number of observations) (single oral dose 40 mg (N=6)): 3
- Hypersomnia, drug related TEAE: N (%) (number of subjects) (single oral dose 40 mg (N=6)): 1 (16.7) N (%)
- Hypersomnia, drug related TEAE: No. (number of observations) (single oral dose 40 mg (N=6)): 1
- Nervous System Disorders, drug related TEAEs: N (%) (number of subjects) (single oral dose 40 mg (N=6)): 3 (50.0) N (%)
- Nervous System Disorders, drug related TEAEs: No. (number of observations) (single oral dose 40 mg (N=6)): 4
- All drug related TEAEs: N (%) (number of subjects) (single oral dose 60 mg (N=6)): 3 (50.0) N (%)
- All drug related TEAEs: No. (number of observations) (single oral dose 60 mg (N=6)): 4
- Cardiac Disorders, drug related TEAEs: N (%) (number of subjects) (single oral dose 60 mg (N=6)): 1 (16.7) N (%)
- Cardiac Disorders, drug related TEAEs: No. (number of observations) (single oral dose 60 mg (N=6)): 1
- Dizziness, drug related TEAE: N (%) (number of subjects) (single oral dose 60 mg (N=6)): 2 (33.3) N (%)
- Dizziness, drug related TEAE: No. (number of observations) (single oral dose 60 mg (N=6)): 2
- Hypersomnia, drug related TEAE: N (%) (number of subjects) (single oral dose 60 mg (N=6)): 1 (16.7) N (%)
- Hypersomnia, drug related TEAE: No. (number of observations) (single oral dose 60 mg (N=6)): 1
- Nervous System Disorders, drug related TEAEs: N (%) (number of subjects) (single oral dose 60 mg (N=6)): 2 (33.3) N (%)
- Nervous System Disorders, drug related TEAEs: No. (number of observations) (single oral dose 60 mg (N=6)): 3
- Postural Dizziness, drug related TEAE: N (%) (number of subjects) (single oral dose 60 mg (N=6)): 1 (16.7) N (%)
- Postural Dizziness, drug related TEAE: No. (number of observations) (single oral dose 60 mg (N=6)): 1
- All drug related TEAEs: N (%) (number of subjects) (single oral dose 80 mg (N=6)): 4 (66.7) N (%)
- All drug related TEAEs: No. (number of observations) (single oral dose 80 mg (N=6)): 8
- Dizziness, drug related TEAE: N (%) (number of subjects) (single oral dose 80 mg (N=6)): 2 (33.3) N (%)
- Dizziness, drug related TEAE: No. (number of observations) (single oral dose 80 mg (N=6)): 2
- Headache, drug related TEAE: N (%) (number of subjects) (single oral dose 80 mg (N=6)): 1 (16.7) N (%)
- Headache, drug related TEAE: No. (number of observations) (single oral dose 80 mg (N=6)): 1
- Hypersomnia, drug related TEAE: N (%) (number of subjects) (single oral dose 80 mg (N=6)): 2 (33.3) N (%)
- Hypersomnia, drug related TEAE: No. (number of observations) (single oral dose 80 mg (N=6)): 2
- Irritability, drug related TEAE: N (%) (number of subjects) (single oral dose 80 mg (N=6)): 1 (16.7) N (%)
- Irritability, drug related TEAE: No. (number of observations) (single oral dose 80 mg (N=6)): 1
- Nervous System Disorders, drug related TEAEs: N (%) (number of subjects) (single oral dose 80 mg (N=6)): 4 (66.7) N (%)
- Nervous System Disorders, drug related TEAEs: No. (number of observations) (single oral dose 80 mg (N=6)): 7
- Psychiatric Disorders, drug related TEAEs: N (%) (number of subjects) (single oral dose 80 mg (N=6)): 1 (16.7) N (%)
- Psychiatric Disorders, drug related TEAEs: No. (number of observations) (single oral dose 80 mg (N=6)): 1
- Somnolence, drug related TEAE: N (%) (number of subjects) (single oral dose 80 mg (N=6)): 2 (33.3) N (%)
- Somnolence, drug related TEAE: No. (number of observations) (single oral dose 80 mg (N=6)): 2
- intensity of drug related TEAEs (single oral doses 0.3-80 mg): mild in intensity
- neurological examination (single oral doses 0.3-80 mg): No abnormalities were found
- serious adverse events (SAEs) (single oral doses 0.3-80 mg): no serious adverse events
- safety and tolerability of single oral dose (up to 80 mg, healthy male subjects): safe and well tolerated
